The source of these data is the supplement of paper PMC11616607.

One experiment relates to HOSE1C. Description: drug sensitivity score (DSS) from 5-point dose-response viability curve (DSS (area-under-curve based score)); higher = more sensitive (stronger growth inhibition or killing); extreme values may be limits of the assay. The note with it: exposure time: 72 h; concentration range: 5 concentrations over 10,000-fold range. Put shortly: (§1)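 For the drug sensitivity score, obtained per cell line and drug in Breeze software, larger values mean greater sensitivity. No response corresponds to a score of zero. Ovarian cancer and normal ovarian cells were seeded at 1,500 per well into 384-well plates already holding acoustically dispensed drugs (Echo 550, DMSO or water, five concentrations over a 10,000-fold range) and incubated 3 days at 37°C, 5% CO2. CellTiter-Glo luminescence on a PHERAstar FS gave the viability readout.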
Regarding `CCOc1ccn(-c2ccc(F)cc2)c(=O)c1C(=O)Nc1ccc(Oc2ccnc(N)c2Cl)c(F)c1`, the drug sensitivity score was found to be 0.

`CCn1c(C(=O)N(C2CC2)C2CC2)cc2c3c(ncn3C)c(Nc3cc(C)n(C)n3)nc21` returned a drug sensitivity score of 0. On the same count and under the same terms, then `C[C@@]1(C(=O)Nc2ccc(F)nc2)CCCN1c1nc(Nc2cc(C3CC3)n[nH]2)c2cccn2n1`, with 8.9. Same read-out and setting: with `Cc1c(-c2ccc(N3CCc4cccc(C(=O)Nc5nc6ccccc6s5)c4C3)nc2C(=O)O)cnn1CC12CC3CC(CC(C3)C1)C2` the figure was 20.6; with `Cc1nn(C)c(COc2ccc(N3CCN(S(=O)(=O)N(C)C)CC3)cc2)c1-c1cccc2c(CCCOc3cccc4ccccc34)c(C(=O)O)n(CCN3CCOCC3)c12`, 13.7; with `O=c1[nH]c(C2CCCN2)nc2c1oc1ccc(Cl)cc12` (stereo unspecified), 2.6. On the same count and under the same terms, then `COc1ccc(C[C@H](NC(=O)[C@H](C)NC(=O)CN2CCOCC2)C(=O)N[C@@H](Cc2ccccc2)C(=O)C2(C)CO2)cc1` (stereo in doubt) [ONX-0914], with 27.9. In turn, `CC/C(=C(\c1ccc(O)cc1)c1ccc(OCCN(C)C)cc1)c1ccccc1` [4-hydroxytamoxifen] came in with a drug sensitivity score of 2.7. Same read-out and setting: with `Nc1ncnc2c1nc(N)n2[C@@H]1O[C@H](CO)[C@@H](O)[C@H]1O` [8-amino-adenosine] the figure was 4.1; with `Nc1ncnc2c1nc(Cl)n2[C@@H]1O[C@H](CO)[C@@H](O)[C@H]1O` [8-chloro-adenosine], 0.5. Same read-out and setting: with `COc1cc2c(cc1OCCCN1CCCC1)N=C(N)C21CCC1` [A-366] the figure was 0.8; with `COc1ccc(S(=O)(=O)Nc2cccnc2Nc2ccc(O)cc2)cc1` [ABT-751], 15.8. On to `C[C@H](Nc1ncnc2[nH]cnc12)c1cc2ccc(F)cc2nc1-c1ccccn1` [AMG319], for which the drug sensitivity score is 0.

Molecule `COCCOc1cnc2ccn([C@H](C)c3nnc4c(F)cc(-c5cnn(C)c5)cn34)c(=O)c2c1` [AMG-337] displayed a drug sensitivity score of 0. Same read-out and setting: with `CC1CCC(n2c3cnccc3c3cnc(Nc4ccc5c(n4)CCN(C(=O)CO)C5)nc32)CC1` (stereo unspecified) [AMG-925] the figure was 0; with `CC(C)[C@H](C(=O)Nc1ccc(C(=O)NO)cc1)c1ccccc1` [AR-42], 21.1; with `Cc1sc2c(c1C)C(c1ccc(Cl)cc1)=N[C@@H](CC(=O)Nc1ccc(OCCOCCOCCOCCNc3cccc4c3C(=O)N(C3CCC(=O)NC3=O)C4=O)cc1)c1nnc(C)n1-2` (stereo partly specified) [ARV-825], 17.3.

`COc1cc(N2CCC(N3CCN(C)CC3)CC2)ccc1Nc1ncnc(Nc2ccccc2S(=O)(=O)C(C)C)n1` [ASP3026]: the drug sensitivity score worked out at 3.4.

Molecule `O=C(NC1CCNCC1)c1n[nH]cc1NC(=O)c1c(Cl)cccc1Cl` [AT7519] returned a drug sensitivity score of 16.6.

The molecule `O=C(Nc1c[nH]nc1-c1nc2ccc(CN3CCOCC3)cc2[nH]1)NC1CC1` [AT9283] displayed a drug sensitivity score of 2.4.

`CC[C@H](CC#N)OC(=O)N[C@@H](C)c1cccc(NC(=O)Nc2ccc(-c3cnco3)c(OC)c2)c1` [AVN944] registered a drug sensitivity score of 25. Still for that read-out and setting: then `COc1cc(N2CCN(C)CC2)ccc1Nc1nccc(-c2cn(C)c3cnccc23)n1` [AZ191], with 1; and `COc1cc(OC2CCN(C)CC2)ccc1Nc1ncc2c(n1)n(C1CCCC1)c(=O)n2C` [AZ 3146], with 0.9. Still for that read-out and setting: then `CN(C)CCCOc1ccc(-c2ccc3ncc4c(c3c2)n(C2CCOCC2)c(=O)n4C)cn1` [AZD0156], with 1.

`N[C@@H]1CCCN(c2c(/C=C3\SC(=O)NC3=O)cccc2-c2ccccc2)C1` [AZD1208] returned a drug sensitivity score of 0.2. Still for that read-out and setting: with `Cc1cc(Nc2nc(N[C@@H](C)c3ncc(F)cn3)ncc2Cl)[nH]n1` [AZD1480] the figure was 0. Regarding `COc1cc2ncnc(Nc3cccc(Cl)c3F)c2cc1OC(=O)N1CCN(C)C[C@H]1C` [AZD3759], the drug sensitivity score was 0. Same read-out and setting: then `Cc1[nH]nc(C(F)(F)F)c1Cc1sc2c(c1C(=O)N1C[C@](C)(O)CO1)c(=O)n(C)c(=O)n2C(C)C` [AZD3965], with 0. Same read-out and setting: with `COc1cc(CCc2cc(NC(=O)c3ccc(N4CC(C)NC(C)C4)cc3)n[nH]2)cc(OC)c1` (stereo unspecified) [AZD4547] the figure was 0.8; with `CN(C)C(=O)c1ccc(S(=O)(=O)c2ccc(NC(=O)[C@@](C)(O)C(F)(F)F)c(Cl)c2)cc1` [AZD7545], 0; with `NC(=O)Nc1cc(-c2cccc(F)c2)sc1C(=O)N[C@H]1CCCNC1` [AZD7762], 7.4.

Another experiment concerns JHOS2. The experiment is described as above. Particulars: exposure time: 72 h; concentration range: 5 concentrations over 10,000-fold range. Put shortly: as §1
Consider `CCOc1ccn(-c2ccc(F)cc2)c(=O)c1C(=O)Nc1ccc(Oc2ccnc(N)c2Cl)c(F)c1`, for which the drug sensitivity score amounted to 0.

Molecule `CCn1c(C(=O)N(C2CC2)C2CC2)cc2c3c(ncn3C)c(Nc3cc(C)n(C)n3)nc21` had a drug sensitivity score of 0. The same measure, in the same setting: then `C[C@@]1(C(=O)Nc2ccc(F)nc2)CCCN1c1nc(Nc2cc(C3CC3)n[nH]2)c2cccn2n1`, with 3.3; and `Cc1c(-c2ccc(N3CCc4cccc(C(=O)Nc5nc6ccccc6s5)c4C3)nc2C(=O)O)cnn1CC12CC3CC(CC(C3)C1)C2`, with 0. `Cc1nn(C)c(COc2ccc(N3CCN(S(=O)(=O)N(C)C)CC3)cc2)c1-c1cccc2c(CCCOc3cccc4ccccc34)c(C(=O)O)n(CCN3CCOCC3)c12` came in with a drug sensitivity score of 6.3. The same measure, in the same setting: then `O=c1[nH]c(C2CCCN2)nc2c1oc1ccc(Cl)cc12` (stereo unspecified), with 0. On the same count and under the same terms, then `COc1ccc(C[C@H](NC(=O)[C@H](C)NC(=O)CN2CCOCC2)C(=O)N[C@@H](Cc2ccccc2)C(=O)C2(C)CO2)cc1` (stereo in doubt) [ONX-0914], with 16.1.

Molecule `CC/C(=C(\c1ccc(O)cc1)c1ccc(OCCN(C)C)cc1)c1ccccc1` [4-hydroxytamoxifen] displayed a drug sensitivity score of 2.8. On the same count and under the same terms, with `Nc1ncnc2c1nc(N)n2[C@@H]1O[C@H](CO)[C@@H](O)[C@H]1O` [8-amino-adenosine] the figure was 28.2; with `Nc1ncnc2c1nc(Cl)n2[C@@H]1O[C@H](CO)[C@@H](O)[C@H]1O` [8-chloro-adenosine], 9.4. In turn, `COc1cc2c(cc1OCCCN1CCCC1)N=C(N)C21CCC1` [A-366] yielded a drug sensitivity score of 0. Consider `COc1ccc(S(=O)(=O)Nc2cccnc2Nc2ccc(O)cc2)cc1` [ABT-751], for which the drug sensitivity score came out at 7.1. Same read-out and setting: then `C[C@H](Nc1ncnc2[nH]cnc12)c1cc2ccc(F)cc2nc1-c1ccccn1` [AMG319], with 0; and `COCCOc1cnc2ccn([C@H](C)c3nnc4c(F)cc(-c5cnn(C)c5)cn34)c(=O)c2c1` [AMG-337], with 0. Molecule `CC1CCC(n2c3cnccc3c3cnc(Nc4ccc5c(n4)CCN(C(=O)CO)C5)nc32)CC1` (stereo unspecified) [AMG-925] displayed a drug sensitivity score of 0.5.
